Assay results as given in paper PMC6100724, “Proteome‐wide analysis of phospho‐regulated PDZ domain interactions” (Molecular Systems Biology, 2018).

What was measured:
Assay in all cases: Phosphomimetic ProP-PD selection with NGS
DLG1 PDZ2 = biological target: T1, DLG1 PDZ2 (Homo sapiens, UniProt Q12959); type: binding; conditions: mean of selections 1-3, bait DLG1 PDZ2
T1 construct: human DLG1 PDZ2 aa 311–407 in a modified pRSET vector 40; made in house; host or cells: E. coli BL21 Gold (DE3)
Protocol: (§1) Phage selections were carried out for four rounds following a protocol by Huang and Sidhu (Huang & Sidhu, 2011) with minor modifications. Non‐specific binding phage was removed by pre‐selections against immobilized GST throughout the selection. The selections against the (pre‐)phosphorylated wild‐type library were performed in 50 mM HEPES (pH 7.4) and 150 mM NaCl (HBS) following the same procedure after pre‐phosphorylation of the library.
(§2) • Immobilize proteins (15 μg in 100 μl PBS) in a 96‐well MaxiSorp microtiter plate (NUNC) overnight at 4°C. • Start a 2YT culture of E. coli Omnimax supplemented with 100 μg/ml tetracycline to retain the F pilus epitope. • Block the wells with 200 μl 0.5% BSA in PBS for 2 h at 4°C. • Precipitate naïve phage library (10^11 cfu per selection) or amplified phage pool from the previous round of selection by adding one‐fifth the volume of PEG/NaCl. • Incubate on ice for 10 min, and pellet precipitated phage by centrifugation at 5,300 g for 15 min. Resuspend the phage pellet in 100 μl PBS per selection. • Add 100 μl of phage solution to the GST‐coated pre‐selection wells and incubate for 1 h. • Transfer the phage solution to the immobilized target proteins and allow it to bind for 2 h at 8°C. • Wash the plate four times with 200 μl cold wash buffer (PBS, 0.05% Tween‐20). • Elute bound phage by incubation with 100 μl log phase (0.6–0.8 OD600) E. coli Omnimax for 30 min at 37°C with shaking (200 RPM). • Add 10^12 cfu/ml M13K07 helper phage for hyperinfection of the bacteria and incubate as above for 45 min. • Transfer the bacterial culture to 10 ml 2YT supplemented with 50 μg/ml carbenicillin, 25 μg/ml kanamycin, and 300 μM IPTG and incubate overnight at 37°C while shaking. • Perform phage pool ELISA to monitor the progress of the selection as described previously (Huang & Sidhu, 2011).
(§3) The naïve library and the enriched phage pools of the third day of selection were amplified and barcoded by PCR and analyzed by NGS as described elsewhere (McLaughlin & Sidhu, 2013; Ivarsson et al, 2014). The reads were demultiplexed using the barcode sequences and filtered by discarding sequences with a Phred quality score under 30. Sequences were mapped to the original library using Bowtie (Langmead et al, 2009) with two mismatches between reads and library sequence. Nucleotide mutations leading to amino acid substitutions were subsequently removed. Cutoff values of NGS counts were assigned for each pool. PWMs were generated based on the remaining peptides (aligned on the C‐termini) using WebLogo (Crooks et al, 2004).
(§4) However, there was no significant correlation of the actual read counts (selection “strength”) and the initial representation in the library, reflecting the strong selection during phage display (wt+mimetic: P‐value: 0.49, ρ = −0.08, mimetic only: P‐value: 0.069, ρ = −0.2, wt only: P‐value: 0.12, ρ = 0.17). Consequently, the amount of reads for each binder after phage display is not a function of the amount of input reads in the naïve library and no modeling based on the input library frequencies to score the interactions is necessary. To allow for comparison between replicate selections, we used the fraction of NGS reads within a certain set, instead of the absolute number of NGS reads, as the absolute numbers differ between different NGS batches.

Scribble PDZ1 = biological target: T2, Scribble PDZ1 (Homo sapiens, UniProt Q14160); type: binding; conditions: bait Scribble PDZ1; mean of selections 1-3
T2 construct: human Scribble PDZ1 aa 719–829 in; made in house; host or cells: E. coli BL21 Gold (DE3)
Protocol: as §1, §2, §3, §4

Scribble PDZ3 = type: binding, human; conditions: mean over selections 1-3; bait Scribble PDZ3
Protocol: as §1, §2, §3, §4

DLG1 PDZ1 = type: binding, human; conditions: mean of selections 1-3, bait DLG1 PDZ1; for Mean fraction #NGS counts mimetic peptide / total count selection: phosphomimetic peptide; for Mean fraction #NGS counts wt peptide / total counts selection: wild type peptide
Protocol: as §1, §2, §3, §4

Scribble PDZ2 = type: binding, human; conditions: bait Scribble PDZ2
Protocol: as §1, §2, §3, §4

[1] = mean of selections 1 and 2 (selection 3 empty)

T2 sequence (Q14160 719-829): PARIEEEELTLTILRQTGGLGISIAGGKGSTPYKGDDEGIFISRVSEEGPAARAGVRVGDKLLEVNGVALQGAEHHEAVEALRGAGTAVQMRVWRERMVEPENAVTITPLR
T1 sequence (Q12959 311-407): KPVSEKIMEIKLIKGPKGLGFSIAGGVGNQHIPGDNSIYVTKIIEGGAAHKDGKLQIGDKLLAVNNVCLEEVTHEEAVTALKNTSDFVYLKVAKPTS

ARVSKEEPL
Mean fraction #NGS counts mimetic peptide / total count selection (DLG1 PDZ2): 0
Mean fraction #NGS counts mimetic peptide / total count selection (Scribble PDZ1): 1.46e-5
Mean fraction #NGS counts mimetic peptide / total count selection (Scribble PDZ3): 0

ARVSKETPL
Mean fraction #NGS counts wt peptide / total counts selection (DLG1 PDZ2): 0.002959
Mean fraction #NGS counts wt peptide / total counts selection (Scribble PDZ1): 0.07558
Mean fraction #NGS counts wt peptide / total counts selection (Scribble PDZ3): 0.1287

ASEPGGTVV
Mean fraction #NGS counts mimetic peptide / total count selection (DLG1 PDZ1): 0

ASSPGGTVV
Mean fraction #NGS counts wt peptide / total counts selection (DLG1 PDZ1): 2.813e-5

EARLWETSI
Mean fraction #NGS counts mimetic peptide / total count selection (Scribble PDZ1): 0.0002246
Mean fraction #NGS counts mimetic peptide / total count selection (DLG1 PDZ1): 3.0718e-6
Mean fraction #NGS counts mimetic peptide / total count selection (Scribble PDZ3): 0.01196

EEREVTTYL
Mean fraction #NGS counts mimetic peptide / total count selection (Scribble PDZ1): 0.0003719
Mean fraction #NGS counts mimetic peptide / total count selection (DLG1 PDZ1): 3.309e-5
Mean fraction #NGS counts mimetic peptide / total count selection (Scribble PDZ3): 0.000214

EGSYLVTSV
Mean fraction #NGS counts mimetic peptide / total count selection (DLG1 PDZ2; phosphomimetic peptide): 0.0002179
Mean fraction #NGS counts mimetic peptide / total count selection (Scribble PDZ1): 1.46e-5

ERLRVEEDV
Mean fraction #NGS counts mimetic peptide / total count selection (DLG1 PDZ2): 0
Mean fraction #NGS counts mimetic peptide / total count selection (DLG1 PDZ1): 0
Mean fraction #NGS counts mimetic peptide / total count selection (Scribble PDZ3): 0

ERLRVETDV
Mean fraction #NGS counts wt peptide / total counts selection (DLG1 PDZ2): 0.00089
Mean fraction #NGS counts wt peptide / total counts selection (DLG1 PDZ1): 0.0001761
Mean fraction #NGS counts wt peptide / total counts selection (Scribble PDZ3): 0.0002834

ESGSQHTNV
Mean fraction #NGS counts mimetic peptide / total count selection (DLG1 PDZ1): 0

ESREVTTYL
Mean fraction #NGS counts wt peptide / total counts selection (Scribble PDZ1): 2.8202e-5
Mean fraction #NGS counts wt peptide / total counts selection (DLG1 PDZ1): 0
Mean fraction #NGS counts wt peptide / total counts selection (Scribble PDZ3): 5.004e-5

GELALLTKL
Mean fraction #NGS counts mimetic peptide / total count selection (Scribble PDZ1): 0.0001134
Mean fraction #NGS counts mimetic peptide / total count selection (DLG1 PDZ1): 1.514e-5

GSLALLTKL
Mean fraction #NGS counts wt peptide / total counts selection (Scribble PDZ1): 0
Mean fraction #NGS counts wt peptide / total counts selection (DLG1 PDZ1): 0

KLESIESDV
Mean fraction #NGS counts mimetic peptide / total count selection (DLG1 PDZ1): 0

KLSSIESDV
Mean fraction #NGS counts wt peptide / total counts selection (DLG1 PDZ2): 0.003213
Mean fraction #NGS counts wt peptide / total counts selection (DLG1 PDZ1): 2.936e-5
Mean fraction #NGS counts wt peptide / total counts selection (Scribble PDZ3): 0.0003618

KPERISTVV
Mean fraction #NGS counts mimetic peptide / total count selection (DLG1 PDZ2; phosphomimetic peptide): 0.001492
Mean fraction #NGS counts mimetic peptide / total count selection (DLG1 PDZ1): 0.0005714

KPSRISTVV
Mean fraction #NGS counts wt peptide / total counts selection (DLG1 PDZ2; wild type peptide): 2.5129e-5
Mean fraction #NGS counts wt peptide / total counts selection (DLG1 PDZ1): 0

KYDKELEPV
Mean fraction #NGS counts mimetic peptide / total count selection (DLG1 PDZ1): 0.003147

KYDKELTPV
Mean fraction #NGS counts wt peptide / total counts selection (DLG1 PDZ1): 1.185e-6

MRLQSETEV
Mean fraction #NGS counts mimetic peptide / total count selection (DLG1 PDZ2): 0.0002982
Mean fraction #NGS counts mimetic peptide / total count selection (DLG1 PDZ1): 3.405e-5

MRLQSETSV
Mean fraction #NGS counts wt peptide / total counts selection (DLG1 PDZ2): 5.408e-5
Mean fraction #NGS counts wt peptide / total counts selection (DLG1 PDZ1): 1.185e-6

QEELKLSNL
Mean fraction #NGS counts mimetic peptide / total count selection (Scribble PDZ2; [1]): 0.0005697

QSELKLSNL
Mean fraction #NGS counts wt peptide / total counts selection (Scribble PDZ2; [1]): 0.0009495

RGLESATEL
Mean fraction #NGS counts mimetic peptide / total count selection (Scribble PDZ2; mean over selections): 0.001519

RGLESATSL
Mean fraction #NGS counts wt peptide / total counts selection (Scribble PDZ2; mean over selections): 0

RIESLESEV
Mean fraction #NGS counts mimetic peptide / total count selection (DLG1 PDZ2; phosphomimetic peptide): 0.000103
Mean fraction #NGS counts mimetic peptide / total count selection (DLG1 PDZ1): 1.703e-5

RISSLESEV
Mean fraction #NGS counts wt peptide / total counts selection (DLG1 PDZ2; wild type peptide): 0.00571
Mean fraction #NGS counts wt peptide / total counts selection (DLG1 PDZ1): 0.0001168

RREEYSTTV
Mean fraction #NGS counts mimetic peptide / total count selection (DLG1 PDZ2): 1.723e-5
Mean fraction #NGS counts mimetic peptide / total count selection (DLG1 PDZ1): 1.94e-5

RRESYSTTV
Mean fraction #NGS counts wt peptide / total counts selection (DLG1 PDZ2): 0.0006987
Mean fraction #NGS counts wt peptide / total counts selection (DLG1 PDZ1): 0.005493
